Here are results for one molecule from patent publication US20010055614A1, “Antidepressant therapy” (priority 1998, published 2001).

Where a name gives a salt, the structure may show the parent alone.

A word on the pKa: it is the negative logarithm of the acid dissociation constant. A low value points to a stronger acid or weaker base. A word on the solubility: it is the concentration that dissolves in the medium under given conditions.

A short description of series [1]: pKa of amitriptyline hydrochloride. In kind it is physicochemical.
The nature of series [2]: Solubility and dissolution rate of amitriptyline hydrochloride in artificial gastric and intestinal fluid. In kind it is physicochemical. The procedure: Dosage form 10 controls the exit 13 surface area for releasing drug 16 essentially independent of the pH of the drug receiving biological receptor, thereby essentially preventing crystallizing drug 16 in exit 13, or essentially preventing blocking exit 13 with nonreleased drug 16. […] In artificial intestinal fluid at 37° C. the drug dissolution rate in artificial intestinal fluid at pH 7.5 is low compared to the dissolution rate in a lower pH such as gastric fluid having a pH of about 2. […] The dissolution rate is sensitive to pH changes, and when drug 16 is pumped from the dosage form it tends to crystallize at higher pH in orifice exit 13, or to partially block orifice exit 13, which in either instance, slows the drug release rate, and decreases the cumulative amount of drug released from the dosage form. The present invention by providing coated granules of antidepressant tricyclic drug 16, and by providing an orifice in the range of 1 mil to 30 mil (0.0254 mm to 0.760 mm), essentially overcomes the problems discussed above. […] In drawing FIG. 6, the release rate is given on the y-axis and the orifice surface area in mils and in mm^2 is given on the x-axis. The release of drug from the dosage form was measured in artificial intestinal fluid. […] Drawing FIG. 9 depicts the cumulative amount of drug release in mg, over a period of 24 hours for a coated drug through a 10 mil (0.254 mm) exit orifice illustrates about 100% of the drug is delivered free of crystalizing in the orifice. Drawing FIG. 10 depicts the release rate measured in artificial gastric fluid over zero to two hours and then in artificial intestinal fluid over two to twenty-four hours, through a 10 mil (0.254 mm) orifice illustrates about 90% of the drug is delivered under these conditions. […] The antidepressant drug is dose delivered independent of pH as found in the gastrointestinal drug and free from sticking or blocked delivery to a patient.

For the molecule `CN(C)CCC=C1c2ccccc2CCc2ccccc21` [amitriptyline hydrochloride], the pKa in series [1] stood at 9.4. Also, in series [2] (7.5 pH, artificial intestinal fluid, compared to artificial gastric fluid at pH 6), the “solubility (in words)” value was “soluble, but the solubility is less”. Further, the solubility in series [2] (artificial gastric fluid, pH 6, simulated gastric fluid) is more than 600 mg/mL. In series [2] (artificial intestinal fluid at pH 7.5, 37° C., compared to gastric fluid pH about 2), the “dissolution rate (in words)” value is reported as “low”.
